Source: ChEMBL document CHEMBL5465560, “Selectivity Literature for EUbOPEN Chemogenomic Library” (2024)
Values belong to the molecule of their own block, whether it stands above or below them.

Assays:
[1] = target: Angiopoietin-1 receptor (Homo sapiens) (UniProt Q02763); experiment: (§1) Selectivity interaction (Kinase panel (Z-LYTE Assay)) EUB0001632a TEK; conditions: at 10 µM
[2] = system: Angiopoietin-1 receptor (Homo sapiens), Q02763 [Y897S]; experiment: as §1; conditions: at 10 µM
[3] = target: T1, Cyclin-dependent kinase 11A (Homo sapiens) (UniProt Q9UQ88); experiment: Selectivity interaction (KinomeScan (DiscoverX)) EUB0000666a CDK11A; conditions: at 10 µM
T1 sequence (whole entry): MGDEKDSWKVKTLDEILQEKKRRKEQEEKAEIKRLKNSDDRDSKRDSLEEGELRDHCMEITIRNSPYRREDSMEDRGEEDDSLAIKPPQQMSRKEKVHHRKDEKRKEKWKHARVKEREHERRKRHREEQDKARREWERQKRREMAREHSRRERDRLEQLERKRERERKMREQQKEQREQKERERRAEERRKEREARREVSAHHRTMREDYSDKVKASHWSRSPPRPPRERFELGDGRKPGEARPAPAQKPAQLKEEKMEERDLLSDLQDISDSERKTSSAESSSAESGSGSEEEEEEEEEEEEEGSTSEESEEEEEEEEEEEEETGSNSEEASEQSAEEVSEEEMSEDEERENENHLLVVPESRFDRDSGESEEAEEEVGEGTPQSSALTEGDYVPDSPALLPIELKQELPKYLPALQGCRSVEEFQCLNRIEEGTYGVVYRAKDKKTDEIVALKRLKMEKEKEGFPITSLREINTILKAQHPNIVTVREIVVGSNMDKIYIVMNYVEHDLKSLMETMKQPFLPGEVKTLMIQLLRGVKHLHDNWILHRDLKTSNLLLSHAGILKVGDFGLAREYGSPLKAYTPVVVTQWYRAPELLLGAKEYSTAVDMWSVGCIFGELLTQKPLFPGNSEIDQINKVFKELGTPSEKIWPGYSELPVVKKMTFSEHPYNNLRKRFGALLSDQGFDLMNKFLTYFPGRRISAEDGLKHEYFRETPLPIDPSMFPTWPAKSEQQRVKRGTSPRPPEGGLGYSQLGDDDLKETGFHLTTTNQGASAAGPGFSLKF

[4] = target: Protein kinase C eta type (Homo sapiens) (UniProt P24723); experiment: Selectivity interaction (KinomeScan (DiscoverX)) EUB0000666a PRKCH; conditions: at 10 µM
Protein kinase C eta type (Homo sapiens), sequence (P24723 whole entry): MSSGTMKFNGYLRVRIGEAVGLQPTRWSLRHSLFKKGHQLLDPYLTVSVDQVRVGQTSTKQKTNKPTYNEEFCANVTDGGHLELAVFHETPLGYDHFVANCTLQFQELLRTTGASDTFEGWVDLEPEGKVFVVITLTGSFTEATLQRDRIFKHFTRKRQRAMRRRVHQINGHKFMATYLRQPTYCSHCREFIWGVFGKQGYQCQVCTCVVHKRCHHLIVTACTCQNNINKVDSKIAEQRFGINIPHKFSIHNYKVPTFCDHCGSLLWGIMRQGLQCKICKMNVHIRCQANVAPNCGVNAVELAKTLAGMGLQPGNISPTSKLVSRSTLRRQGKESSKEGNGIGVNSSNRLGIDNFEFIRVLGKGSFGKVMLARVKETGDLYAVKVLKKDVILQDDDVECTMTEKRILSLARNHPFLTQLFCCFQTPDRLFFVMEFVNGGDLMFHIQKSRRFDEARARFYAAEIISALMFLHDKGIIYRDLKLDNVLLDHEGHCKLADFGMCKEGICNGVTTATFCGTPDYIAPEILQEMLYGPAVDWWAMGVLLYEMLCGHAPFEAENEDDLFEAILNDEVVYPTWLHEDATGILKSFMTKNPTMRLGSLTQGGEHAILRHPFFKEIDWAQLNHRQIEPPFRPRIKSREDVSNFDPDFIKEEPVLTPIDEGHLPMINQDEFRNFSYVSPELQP

[5] = target: T2, Tyrosine-protein kinase ZAP-70 (Homo sapiens, UniProt P43403); experiment: Selectivity interaction (Kinase panel (33PanQinase(R) Activity Assay)) EUB0000877a ZAP70
T2 sequence (P43403 whole entry): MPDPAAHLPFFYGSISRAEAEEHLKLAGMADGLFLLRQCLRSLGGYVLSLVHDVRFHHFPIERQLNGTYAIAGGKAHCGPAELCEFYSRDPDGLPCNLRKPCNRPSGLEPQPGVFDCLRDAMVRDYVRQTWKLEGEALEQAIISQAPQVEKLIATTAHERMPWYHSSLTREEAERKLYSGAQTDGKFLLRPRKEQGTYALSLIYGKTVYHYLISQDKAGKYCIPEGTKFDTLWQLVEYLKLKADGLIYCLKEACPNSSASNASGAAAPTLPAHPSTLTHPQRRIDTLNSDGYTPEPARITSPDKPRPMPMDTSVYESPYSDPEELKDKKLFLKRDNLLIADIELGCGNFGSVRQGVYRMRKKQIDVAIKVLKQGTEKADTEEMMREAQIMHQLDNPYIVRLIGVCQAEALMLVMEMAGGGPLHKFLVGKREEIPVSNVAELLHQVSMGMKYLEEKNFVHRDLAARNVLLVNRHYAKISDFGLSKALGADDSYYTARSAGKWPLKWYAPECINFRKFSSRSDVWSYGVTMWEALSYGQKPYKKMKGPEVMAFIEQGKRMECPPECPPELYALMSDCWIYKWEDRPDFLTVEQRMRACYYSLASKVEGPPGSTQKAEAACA

[6] = target: Serine/threonine-protein kinase 24 (Homo sapiens) (UniProt Q9Y6E0); experiment: Selectivity interaction (KinomeScan (DiscoverX)) EUB0000699a STK24; conditions: at 10 µM
Serine/threonine-protein kinase 24 (Homo sapiens), sequence (Q9Y6E0 whole entry, looked up): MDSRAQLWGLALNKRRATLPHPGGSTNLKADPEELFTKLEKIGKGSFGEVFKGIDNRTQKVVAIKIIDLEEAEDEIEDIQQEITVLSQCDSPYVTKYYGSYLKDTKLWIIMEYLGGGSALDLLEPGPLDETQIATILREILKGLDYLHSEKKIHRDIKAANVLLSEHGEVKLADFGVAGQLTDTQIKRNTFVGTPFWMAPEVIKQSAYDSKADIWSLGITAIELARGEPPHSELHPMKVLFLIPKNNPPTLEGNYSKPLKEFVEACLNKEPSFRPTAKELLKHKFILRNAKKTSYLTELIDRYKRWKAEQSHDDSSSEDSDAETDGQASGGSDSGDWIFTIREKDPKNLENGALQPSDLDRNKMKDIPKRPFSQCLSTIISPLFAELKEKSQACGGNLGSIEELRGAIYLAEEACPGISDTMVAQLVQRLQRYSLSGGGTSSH

[7] = target: T3, Tyrosine-protein kinase TXK (Homo sapiens) (UniProt P42681); experiment: Selectivity interaction (ProQinase) EUB0000171b TXK
T3 sequence (whole entry): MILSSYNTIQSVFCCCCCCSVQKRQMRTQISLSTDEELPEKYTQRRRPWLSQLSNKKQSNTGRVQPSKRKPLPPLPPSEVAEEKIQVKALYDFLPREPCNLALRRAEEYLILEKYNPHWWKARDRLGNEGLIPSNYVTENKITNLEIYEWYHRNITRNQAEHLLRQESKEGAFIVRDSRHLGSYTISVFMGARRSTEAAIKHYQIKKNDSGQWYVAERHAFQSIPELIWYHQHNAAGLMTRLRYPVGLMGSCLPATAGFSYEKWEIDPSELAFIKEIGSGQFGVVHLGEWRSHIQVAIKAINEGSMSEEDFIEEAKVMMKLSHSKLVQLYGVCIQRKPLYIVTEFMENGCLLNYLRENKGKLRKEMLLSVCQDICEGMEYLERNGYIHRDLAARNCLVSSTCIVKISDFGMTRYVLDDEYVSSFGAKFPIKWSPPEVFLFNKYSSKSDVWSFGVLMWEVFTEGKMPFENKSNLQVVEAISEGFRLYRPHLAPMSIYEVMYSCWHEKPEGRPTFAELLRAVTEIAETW

[8] = target: Tyrosine-protein kinase JAK1 (Homo sapiens, UniProt P23458); experiment: Selectivity interaction (Ambit KINOMEscan and KiNATiv profiling in Jurkat cells) EUB0000090b JAK1; assay type: cell-based; conditions: at 1 µM
[9] = target: STE20/SPS1-related proline-alanine-rich protein kinase (Homo sapiens) (UniProt Q9UEW8); experiment: Selectivity interaction (Kinase panel (DSF assay)) EUB0001558a STK39
[10] = target: Platelet-derived growth factor receptor beta (Homo sapiens, UniProt P09619); experiment: Selectivity interaction (KinomeScan (DiscoverX)) EUB0000045b PDGFRB
Platelet-derived growth factor receptor beta, sequence (P09619 whole entry): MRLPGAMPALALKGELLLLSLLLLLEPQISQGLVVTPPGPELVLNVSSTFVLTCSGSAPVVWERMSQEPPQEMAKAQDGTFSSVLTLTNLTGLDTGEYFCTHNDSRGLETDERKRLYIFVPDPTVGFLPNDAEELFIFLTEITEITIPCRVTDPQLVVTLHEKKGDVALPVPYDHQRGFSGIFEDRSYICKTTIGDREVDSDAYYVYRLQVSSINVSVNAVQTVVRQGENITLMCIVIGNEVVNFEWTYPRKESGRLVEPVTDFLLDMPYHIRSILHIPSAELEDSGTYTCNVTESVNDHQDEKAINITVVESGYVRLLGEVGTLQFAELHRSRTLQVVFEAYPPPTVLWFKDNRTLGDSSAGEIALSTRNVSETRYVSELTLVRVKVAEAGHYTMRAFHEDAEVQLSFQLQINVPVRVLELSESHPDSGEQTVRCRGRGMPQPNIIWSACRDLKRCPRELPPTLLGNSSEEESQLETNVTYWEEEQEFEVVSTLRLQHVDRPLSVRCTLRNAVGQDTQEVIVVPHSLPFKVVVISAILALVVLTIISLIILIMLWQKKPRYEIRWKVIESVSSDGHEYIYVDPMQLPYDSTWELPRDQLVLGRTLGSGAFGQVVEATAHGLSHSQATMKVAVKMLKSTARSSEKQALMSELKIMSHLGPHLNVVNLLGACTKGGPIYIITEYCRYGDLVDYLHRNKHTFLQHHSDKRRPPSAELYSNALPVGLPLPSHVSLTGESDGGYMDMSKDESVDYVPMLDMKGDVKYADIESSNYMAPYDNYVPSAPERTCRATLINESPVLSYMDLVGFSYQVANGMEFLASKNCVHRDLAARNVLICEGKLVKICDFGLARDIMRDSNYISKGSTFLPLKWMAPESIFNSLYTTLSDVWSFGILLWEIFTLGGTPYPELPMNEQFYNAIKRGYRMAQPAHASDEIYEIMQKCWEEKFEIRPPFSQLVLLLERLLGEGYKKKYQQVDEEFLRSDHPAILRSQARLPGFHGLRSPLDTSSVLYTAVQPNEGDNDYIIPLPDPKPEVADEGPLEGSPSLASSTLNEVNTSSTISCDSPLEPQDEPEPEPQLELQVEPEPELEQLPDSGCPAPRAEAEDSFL

[11] = target: Dual specificity protein kinase CLK2 (Homo sapiens, UniProt P49760); experiment: Selectivity interaction (KinomeScan (DiscoverX)) EUB0001550a CLK2; conditions: at 1 µM
Dual specificity protein kinase CLK2, sequence (P49760 whole entry, looked up): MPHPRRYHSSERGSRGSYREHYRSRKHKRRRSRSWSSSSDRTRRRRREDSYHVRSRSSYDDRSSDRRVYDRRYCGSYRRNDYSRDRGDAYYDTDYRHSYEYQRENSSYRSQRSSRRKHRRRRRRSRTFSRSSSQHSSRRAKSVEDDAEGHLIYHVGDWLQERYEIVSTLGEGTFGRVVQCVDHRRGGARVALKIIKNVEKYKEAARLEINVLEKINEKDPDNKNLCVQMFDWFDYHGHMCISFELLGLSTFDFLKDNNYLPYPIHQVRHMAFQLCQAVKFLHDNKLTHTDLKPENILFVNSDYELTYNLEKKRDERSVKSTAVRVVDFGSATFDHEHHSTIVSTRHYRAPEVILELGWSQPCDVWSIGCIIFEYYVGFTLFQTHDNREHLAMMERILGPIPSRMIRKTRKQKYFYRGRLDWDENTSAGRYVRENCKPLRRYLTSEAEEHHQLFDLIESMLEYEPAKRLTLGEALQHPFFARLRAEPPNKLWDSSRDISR

[12] = target: Fibroblast growth factor receptor 1 (Homo sapiens, UniProt P11362); experiment: Selectivity interaction (KinomeScan (DiscoverX)) EUB0000092b FGFR1; conditions: at 10 µM
Fibroblast growth factor receptor 1, sequence (P11362 22-822 limits assumed): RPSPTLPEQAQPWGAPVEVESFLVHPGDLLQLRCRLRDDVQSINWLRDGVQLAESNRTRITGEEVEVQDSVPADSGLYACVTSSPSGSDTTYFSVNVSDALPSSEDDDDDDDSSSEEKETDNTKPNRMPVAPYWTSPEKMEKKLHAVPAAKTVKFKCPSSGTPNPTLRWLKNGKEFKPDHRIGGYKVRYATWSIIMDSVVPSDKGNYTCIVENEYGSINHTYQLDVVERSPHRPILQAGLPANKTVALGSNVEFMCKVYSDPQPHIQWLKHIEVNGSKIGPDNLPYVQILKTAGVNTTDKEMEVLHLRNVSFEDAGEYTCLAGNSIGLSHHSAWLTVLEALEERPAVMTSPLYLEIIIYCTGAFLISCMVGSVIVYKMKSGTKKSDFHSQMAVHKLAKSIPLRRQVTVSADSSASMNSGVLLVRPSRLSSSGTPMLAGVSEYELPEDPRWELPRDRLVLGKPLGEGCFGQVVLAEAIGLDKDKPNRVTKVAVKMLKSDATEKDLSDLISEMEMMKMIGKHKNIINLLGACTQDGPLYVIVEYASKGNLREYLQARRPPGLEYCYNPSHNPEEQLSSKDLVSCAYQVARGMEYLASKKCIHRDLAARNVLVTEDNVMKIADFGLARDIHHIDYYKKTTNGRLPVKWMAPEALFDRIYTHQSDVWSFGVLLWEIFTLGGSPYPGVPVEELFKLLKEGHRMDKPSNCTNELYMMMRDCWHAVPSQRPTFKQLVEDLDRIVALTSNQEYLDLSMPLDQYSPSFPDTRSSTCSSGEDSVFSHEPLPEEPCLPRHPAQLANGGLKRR

[13] = target: Serine/threonine-protein kinase 10 (Homo sapiens) (UniProt O94804); experiment: Selectivity interaction (ActivX KiNativ screen (ex vivo kinase selectivity in human PBMCs)) EUB0001619a STK10; assay type: cell-based; conditions: PBMC, at 1 µM

Angiopoietin-1 receptor (Homo sapiens), Q02763 [Y897S], sequence (Q02763 whole entry Y897S): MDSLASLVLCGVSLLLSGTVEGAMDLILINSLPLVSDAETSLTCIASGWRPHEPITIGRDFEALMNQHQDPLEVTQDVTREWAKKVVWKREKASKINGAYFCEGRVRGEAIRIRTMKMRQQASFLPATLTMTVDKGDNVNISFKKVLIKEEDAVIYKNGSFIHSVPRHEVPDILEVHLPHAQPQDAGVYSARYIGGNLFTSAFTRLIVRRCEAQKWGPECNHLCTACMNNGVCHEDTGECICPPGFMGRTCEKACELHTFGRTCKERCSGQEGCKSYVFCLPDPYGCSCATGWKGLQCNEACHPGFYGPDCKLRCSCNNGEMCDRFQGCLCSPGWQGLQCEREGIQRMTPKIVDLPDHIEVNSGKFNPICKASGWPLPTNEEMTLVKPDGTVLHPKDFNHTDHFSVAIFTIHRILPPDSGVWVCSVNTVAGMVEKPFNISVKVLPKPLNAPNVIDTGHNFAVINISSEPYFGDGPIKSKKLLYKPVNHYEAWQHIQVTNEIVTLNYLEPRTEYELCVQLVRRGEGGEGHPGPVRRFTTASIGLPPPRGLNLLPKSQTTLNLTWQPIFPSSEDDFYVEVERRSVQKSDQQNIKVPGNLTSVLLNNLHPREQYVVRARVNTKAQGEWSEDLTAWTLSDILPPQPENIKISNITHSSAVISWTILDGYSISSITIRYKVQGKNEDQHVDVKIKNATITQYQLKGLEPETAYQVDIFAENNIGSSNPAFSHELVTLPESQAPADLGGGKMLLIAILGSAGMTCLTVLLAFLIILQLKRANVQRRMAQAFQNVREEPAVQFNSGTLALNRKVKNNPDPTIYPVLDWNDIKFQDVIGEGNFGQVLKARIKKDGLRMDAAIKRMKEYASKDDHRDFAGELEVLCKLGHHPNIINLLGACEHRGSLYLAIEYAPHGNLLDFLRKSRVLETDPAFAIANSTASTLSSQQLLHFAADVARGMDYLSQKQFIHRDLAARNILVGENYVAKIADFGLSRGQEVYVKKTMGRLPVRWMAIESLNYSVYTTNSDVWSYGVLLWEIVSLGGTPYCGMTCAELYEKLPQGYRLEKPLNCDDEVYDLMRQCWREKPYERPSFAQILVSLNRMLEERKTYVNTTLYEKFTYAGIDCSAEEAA
Angiopoietin-1 receptor (Homo sapiens), sequence (Q02763 whole entry): as the sequence (Q02763 whole entry Y897S) above, with S897Y counted along it

% of control [1]: -5.98%
% of control [2]: 0.243%
Structure (SMILES): Cn1cc(-n2cnc3c(NCc4nc5cc(Cl)c(Cl)cc5[nH]4)nc(N4CCOCC4)nc32)cn1

Structure (SMILES): O=C(NOC[C@H](O)CO)c1ccc(F)c(F)c1Nc1ccc(I)cc1F
% of control [3]: 100%
% of control [4]: 100%

IC50 [5]: > 10 µM
Structure (SMILES): CCC(=O)N1CC[C@H](Nc2ncnc3c2CN(c2cnc(OC)c(C(F)(F)F)c2)CC3)C1 [LENIOLISIB]

% of control [6]: 7%
Structure (SMILES): CCN(CC)CCCCNc1ncc2cc(-c3cc(OC)cc(OC)c3)c(NC(=O)NC(C)(C)C)nc2n1

% of control ([7]; at 1 µM): 87%
% of control ([7]; at 5 µM): 77%
Structure (SMILES): C=CC(=O)Nc1cccc(C(=O)Nc2ccc(Nc3cc(-c4[nH]c(SC)nc4C)ccn3)cc2)c1

Structure (SMILES): CN(C)C/C=C/C(=O)Nc1ccc(C(=O)N2CCCC(Nc3ncc(Cl)c(-c4c[nH]c5ccccc45)n3)C2)cc1 (stereo not given)
% of control [8]: 86%

Structure (SMILES): CC(C)(O)[C@H](F)CN1Cc2cc(NC(=O)c3cnn4cccnc34)c(N3CCOCC3)cc2C1=O
dTM [9]: 0.2 K

Structure (SMILES): C=CC(=O)Nc1cc(-n2c(=O)ccc3cnc4ccc(-c5ccc(NS(C)(=O)=O)cc5)cc4c32)ccc1C
% of control ([10]; at 1 µM): 76%
% of control ([10]; at 10 µM): 63%

% of control [11]: 20%
Structure (SMILES): CN(C)CC#Cc1ccc2[nH]c3c(c2c1)-c1nc(N)ncc1CCC3

Structure (SMILES): CCC(=O)N1CCN(c2ccc(-n3c(=O)ccc4cnc5ccc(-c6cnc7ccccc7c6)cc5c43)cc2C(F)(F)F)CC1
% of control [12]: 96%

Structure (SMILES): N#Cc1cccc(-c2c[nH]c3ncnc(N4CCOCC4)c23)c1
% of inhibition [13]: 77%
